Consider 17 molecules from patent US20260317333A1, “Heteroaryl Compounds as Ligand Directed Degraders of IRAK4” (Celgene Corporation, priority 2023, published 2026).

Counter-ions that a name gives are not always drawn.

This experiment addresses T1, IRAK4 (Homo sapiens, UniProt Q9NWZ3).
T1 sequence (Q9NWZ3 1-460): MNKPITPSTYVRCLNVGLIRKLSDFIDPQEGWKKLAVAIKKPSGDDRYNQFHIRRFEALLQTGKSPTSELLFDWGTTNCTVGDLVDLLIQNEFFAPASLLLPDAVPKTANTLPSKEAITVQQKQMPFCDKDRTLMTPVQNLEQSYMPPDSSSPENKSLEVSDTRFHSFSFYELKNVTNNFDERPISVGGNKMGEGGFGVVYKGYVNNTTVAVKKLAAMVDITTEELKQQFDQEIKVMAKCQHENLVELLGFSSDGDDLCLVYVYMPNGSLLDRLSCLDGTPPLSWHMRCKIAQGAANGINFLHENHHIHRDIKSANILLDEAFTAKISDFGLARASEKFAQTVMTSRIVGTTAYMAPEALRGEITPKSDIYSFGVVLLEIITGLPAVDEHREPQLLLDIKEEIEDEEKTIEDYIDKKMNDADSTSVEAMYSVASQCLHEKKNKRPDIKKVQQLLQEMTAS
The experiment can be described thus: ALE THP1 HTRF (IRAK4 degradation in THP1 cells, HTRF with anti-IRAK4 antibodies). The settings on record: THP1 cell lysate; for DC50: read-out: ALE THP1 HTRF EC50. Details: THP1 Homogeneous Time Resolved Fluorescence (ALE THP1 HTRF) Procedure; endogenous in cells; host or cells: THP1. The format is cell-based. As to the method:
Cell culture media was prepared in a tissue culture hood in a sterile environment by adding 10% FBS and 1% Penicillin Streptomycin to 500 mL no phenol red RPMI 1640 media. The media was filtered through a Nalgene Bottle Top Filter and stored at 4° C.
For Homogenous Time Resolved Fluorescence (HTRF) assays, a Cisbio HTRF kit was used, which included: Lysis Buffer #1 4×, Blocking Reagent #3 100×, 20× Antibody 1 (Anti-IRAK4 d2), 20× Antibody 2 (Anti-IRAK4 k), and Detection Buffer.
4× Lysis Buffer was stored at 4° C. For use as 1× Lysis buffer, the 4× solution was diluted with de-ionized water (distilled water, Gibco Cat. #15230279) and 100× Blocking Reagent in a 1:3:0.04 volume ratio.
20× Antibody Solution aliquots were stored at −80° C. and the Detection Buffer was stored at 4° C. For use as a 1× Antibody Solution, the 20× Antibody Solution aliquot was diluted with Detection Buffer in a 1:19 volume ratio.
Cells were lysed at room temperature for 45 min with shaking. A BCA protein assay was performed and normalization was conducted to the desired total protein concentration with 1× lysis buffer. Next, 1× Antibody Solutions were prepared by adding 380 μL Detection Buffer to 20 μL 20× Antibody Solution aliquots and mixing well. 1× Antibody Solutions were combined 1:1 and briefly vortexed. For control wells, 20 μL 1× anti IRAK4-k Antibody Solution was saved. The 384-well plate (ProxiPlate-384 Plus, Perkin Elmer Cat. #6008289) was loaded by adding 4 μL of the mixed Antibody Solution to empty wells using a single channel repeater. Using a multi-channel repeater, 16 μL lysate was added per well, and any bubbles that were formed were popped with 20 μL pipette tips and Kimwipe edges. In column 10, triplicates of each control were prepared. In wells A10, B10, and C10, buffer control was prepared by adding 16 μL Lysis Buffer and 4 μL Detection Buffer. In wells D10, E10, and F10, cryptate control was prepared by adding 16 μL Lysis Buffer, 2 μL Detection Buffer, and 2 μL 1× anti-IRAK4-k Antibody Solution. In wells G10, H10, and I10, a negative control was prepared by adding 16 μL Lysis Buffer and 4 μL mixed Antibody Solution. The plate was sealed with a clear seal and covered with an aluminum lid. The plate was spun down at 800 g for 5 min and incubated in the dark at room temperature overnight. The next day, the plate was spun down at 800 g for 5 min. The samples were analyzed by a plate reader (Envision, PerkinElmer) using the Desnor 384 HTRF program.

Turning to `N[C@@H]1C[C@@H](F)CN(c2ccn3ncc(C(=O)Nc4cn([C@H]5CC[C@H](CCN6CCC[C@H](c7ccc(C8CCC(=O)NC8=O)cc7)C6)CC5)nc4C(F)F)c3n2)C1` (stereo in doubt) [Compound P-29], the “ALE THP1 HTRF YMIN” value is given as over 95% and the DC50 is over 10000 nM.

As for `N[C@@H]1C[C@@H](F)CN(c2ccn3ncc(C(=O)Nc4cn([C@H]5CC[C@H](CN6CCN(C(=O)c7ccc(C8CCC(=O)NC8=O)cc7)CC6)CC5)nc4C(F)(F)F)c3n2)C1` (stereo partly shown) [Compound P-4], the “ALE THP1 HTRF YMIN” value is listed as 32% and the DC50 was over 10000 nM.

For the molecule `N[C@@H]1C[C@@H](F)CN(c2ccn3ncc(C(=O)Nc4cn([C@H]5CC[C@H](CN6CCC(Nc7ccc(C8CCC(=O)NC8=O)cc7)CC6)CC5)nc4C(F)(F)F)c3n2)C1` (stereo partly drawn) [Compound P-5, N-[1-[4-[[4-[4-(2,6-dioxo-3-piperidyl)anilino]-1-piperidyl]methyl]cyclohexyl]-3-(trifluoromethyl)pyrazol-4-yl]-5-[(3R,5R)-3-amino-5-fluoro-1-piperidyl]pyrazolo[1,5-a]pyrimidine-3-carboxamide hydrochloride], the “ALE THP1 HTRF YMIN” value worked out at 45% and the DC50 turned out to be 57 nM.

For the molecule `N[C@@H]1C[C@@H](F)CN(c2ccn3ncc(C(=O)Nc4cn([C@H]5CC[C@H](CN6CCC(CNc7cccc(C8CCC(=O)NC8=O)c7)CC6)CC5)nc4C(F)(F)F)c3n2)C1` (stereo partly drawn) [Compound P-6, 5-((3R,5R)-3-amino-5-fluoropiperidin-1-yl)-N-(1-((1r,4r)-4-((4-(((3-(2,6-dioxopiperidin-3-yl)phenyl)amino)methyl)piperidin-1-yl)methyl)cyclohexyl)-3-(trifluoromethyl)-1H-pyrazol-4-yl) pyrazolo[1,5-a]pyrimidine-3-carboxamide hydrochloride], the “ALE THP1 HTRF YMIN” value came to 15% and the DC50 is 17 nM.

Regarding `N[C@@H]1C[C@@H](F)CN(c2ccn3ncc(C(=O)Nc4cn([C@H]5CC[C@H](CN6CCC(Nc7cccc(C8CCC(=O)NC8=O)c7)CC6)CC5)nc4C(F)(F)F)c3n2)C1` (stereo partly shown) [Compound P-8], the “ALE THP1 HTRF YMIN” value is given as over 95% and the DC50 was over 10000 nM.

Regarding `N[C@@H]1C[C@@H](F)CN(c2ccn3ncc(C(=O)Nc4cn([C@H]5CC[C@H](C(=O)N6CCN(Cc7ccc(C8CCC(=O)NC8=O)cc7)CC6)CC5)nc4C(F)(F)F)c3n2)C1` (stereo partly shown) [Compound P-12], the “ALE THP1 HTRF YMIN” value worked out at 57% and the DC50 came out at 6860 nM.

Turning to `N[C@@H]1C[C@@H](F)CN(c2ccn3ncc(C(=O)Nc4cn([C@H]5CC[C@H](CN6CCN(Cc7ccc(C8CCC(=O)NC8=O)cc7)CC6)CC5)nc4C(F)(F)F)c3n2)C1` (stereo partly shown) [Compound P-13], the “ALE THP1 HTRF YMIN” value is on record as 18% and the DC50 came to 405 nM.

With `N[C@@H]1C[C@@H](F)CN(c2ccn3ncc(C(=O)Nc4cn([C@H]5CC[C@H](C(=O)NC6CCN(c7cccc(C8CCC(=O)NC8=O)c7)CC6)CC5)nc4C(F)F)c3n2)C1` (stereo partly shown) [Compound P-14], the “ALE THP1 HTRF YMIN” value was 64% and the DC50 was over 10000 nM.

Consider `N[C@@H]1C[C@@H](F)CN(c2ccn3ncc(C(=O)Nc4cn([C@H]5CC[C@H](C(=O)NC6CCN(c7ccc(C8CCC(=O)NC8=O)cc7)CC6)CC5)nc4C(F)F)c3n2)C1` (stereo partly drawn) [Compound P-15, 5-[(3R,5R)-3-amino-5-fluoro-1-piperidyl]-N-[3-(difluoromethyl)-1-[4-[[1-[4-(2,6-dioxo-3-piperidyl)phenyl]-4-piperidyl]carbamoyl]cyclohexyl]pyrazol-4-yl]pyrazolo[1,5-a]pyrimidine-3-carboxamide hydrochloride], for which the “ALE THP1 HTRF YMIN” value came to 11% and the DC50 came out at 4 nM.

Regarding `CN(CC1CCN(C(=O)[C@H]2CC[C@H](n3cc(NC(=O)c4cnn5ccc(N6C[C@H](N)C[C@@H](F)C6)nc45)c(C(F)F)n3)CC2)CC1)c1cccc(C2CCC(=O)NC2=O)c1` (stereo partly drawn) [Compound P-16, 5-((3R,5R)-3-amino-5-fluoropiperidin-1-yl)-N-(3-(difluoromethyl)-1-((1r,4r)-4-(4-(((3-(2,6-dioxopiperidin-3-yl)phenyl)(methyl)amino)methyl)piperidine-1-carbonyl)cyclohexyl)-1H-pyrazol-4-yl)pyrazolo[1,5-a]pyrimidine-3-carboxamide hydrochloride], the “ALE THP1 HTRF YMIN” value stood at 18% and the DC50 was 28 nM.

On to `N[C@@H]1C[C@@H](F)CN(c2ccn3ncc(C(=O)Nc4cn([C@H]5CC[C@H](C(=O)N6CCC7(CC6)CN(c6cccc(C8CCC(=O)NC8=O)c6)C7)CC5)nc4C(F)F)c3n2)C1` (stereo partly shown) [Compound P-17], for which the “ALE THP1 HTRF YMIN” value is 73% and the DC50 was over 10000 nM.

For `N[C@@H]1C[C@@H](F)CN(c2ccn3ncc(C(=O)Nc4cn([C@H]5CC[C@H](CN6CCC7(CC6)CN(c6cccc(C8CCC(=O)NC8=O)c6)C7)CC5)nc4C(F)F)c3n2)C1` (stereo partly shown) [Compound P-18], the “ALE THP1 HTRF YMIN” value is listed as 13% and the DC50 worked out at 9180 nM.

For the molecule `CN(CC1CCN(C[C@H]2CC[C@H](n3cc(NC(=O)c4cnn5ccc(N6C[C@H](N)C[C@@H](F)C6)nc45)c(C(F)F)n3)CC2)CC1)c1cccc(C2CCC(=O)NC2=O)c1` (stereo partly drawn) [Compound P-19, N-[3-(Difluoromethyl)-1-[4-[4-[[3-(2,6-dioxo-3-piperidyl)-N-methyl-anilino]methyl]-1-piperidyl]methyl]cyclohexyl]pyrazol-4-yl]-5-[(3R,5R)-3-amino-5-fluoro-1-piperidyl]pyrazolo[1,5-a]pyrimidine-3-carboxamide dihydrochloride], the “ALE THP1 HTRF YMIN” value amounted to 11% and the DC50 was 10 nM.

Regarding `N[C@@H]1C[C@@H](F)CN(c2ccn3ncc(C(=O)Nc4cn([C@H]5CC[C@H](CCN6CCC(c7ccc(C8CCC(=O)NC8=O)cc7)CC6)CC5)nc4C(F)F)c3n2)C1` (stereo partly shown) [Compound P-20], the “ALE THP1 HTRF YMIN” value is recorded as 12% and the DC50 stood at 11 nM.

With `N[C@@H]1C[C@@H](F)CN(c2ccn3ncc(C(=O)Nc4cn([C@H]5CC[C@H](CCN6CCN(c7ccc(C8CCC(=O)NC8=O)cc7)CC6)CC5)nc4C(F)F)c3n2)C1` (stereo partly drawn) [Compound P-21, N-[3-(Difluoromethyl)-1-[4-[2-[4-[4-(2,6-dioxo-3-piperidyl)phenyl]piperazin-1-ylethyl]cyclohexyl]pyrazol-4-yl]-5-[(3R,5R)-3-amino-5-fluoro-1-piperidyl]pyrazolo[1,5-a]pyrimidine-3-carboxamide formic acid salt], the “ALE THP1 HTRF YMIN” value is on record as 15% and the DC50 stood at 10 nM.

Turning to `N[C@@H]1C[C@@H](F)CN(c2ccn3ncc(C(=O)Nc4cn([C@H]5CC[C@H](CCN6CCN(c7cccc(C8CCC(=O)NC8=O)c7)CC6)CC5)nc4C(F)F)c3n2)C1` (stereo partly shown) [Compound P-22], the “ALE THP1 HTRF YMIN” value worked out at 43% and the DC50 was 3010 nM.

Turning to `N[C@@H]1C[C@@H](F)CN(c2ccn3ncc(C(=O)Nc4cn([C@H]5CC[C@H](CCN6CCC7(CC6)CN(c6ccc(C8CCC(=O)NC8=O)cc6)C7)CC5)nc4C(F)F)c3n2)C1` (stereo partly drawn) [Compound P-23, N-[3-(Difluoromethyl)-1-[4-[2-[2-[4-(2,6-dioxo-3-piperidyl)phenyl]-2,7-diazaspiro[3.5]nonan-7-yl]ethyl]cyclohexyl]pyrazol-4-yl]-5-[(3R,5R)-3-amino-5-fluoro-1-piperidyl]pyrazolo[1,5-a]pyrimidine-3-carboxamide formic acid salt], the “ALE THP1 HTRF YMIN” value was found to be 15% and the DC50 amounted to 11 nM.
